According to PubChem BioAssay (NCI):
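The compound was tested at five concentrations on cells cultured in 96-well plates, with a 48-hour exposure period. TGI marks complete inhibition of growth.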

What was measured:
Assay in all cases: inhibition of tumour cell growth, NCI panel, 48 h
K-562 leukemia = test system: K-562 leukemia
IGROV1 ovarian = test system: IGROV1 ovarian
786-0 renal = test system: 786-0 renal
HCT-116 colon = test system: HCT-116 colon
SK-MEL-5 melanoma = test system: SK-MEL-5 melanoma
SK-MEL-2 melanoma = test system: SK-MEL-2 melanoma
BT-549 breast = test system: BT-549 breast
U251 CNS = test system: U251 CNS
HT29 colon = test system: HT29 colon
MDA-MB-231 breast = test system: MDA-MB-231 breast
RXF 393 renal = test system: RXF 393 renal
SF-539 CNS = test system: SF-539 CNS
OVCAR-3 ovarian = test system: OVCAR-3 ovarian
MOLT-4 leukemia = test system: MOLT-4 leukemia
SK-MEL-28 melanoma = test system: SK-MEL-28 melanoma
CCRF-CEM leukemia = test system: CCRF-CEM leukemia
A498 renal = test system: A498 renal
NCI-H23 lung = test system: NCI-H23 lung
OVCAR-5 ovarian = test system: OVCAR-5 ovarian
LOX IMVI melanoma = test system: LOX IMVI melanoma
SF-268 CNS = test system: SF-268 CNS
CAKI-1 renal = test system: CAKI-1 renal
HL-60(TB) leukemia = test system: HL-60(TB) leukemia
HCT-15 colon = test system: HCT-15 colon
SF-295 CNS = test system: SF-295 CNS
KM12 colon = test system: KM12 colon
MALME-3M melanoma = test system: MALME-3M melanoma
SW-620 colon = test system: SW-620 colon
MDA-MB-435 = test system: MDA-MB-435
NCI-H226 lung = test system: NCI-H226 lung
NCI/ADR-RES ovarian = test system: NCI/ADR-RES ovarian
UO-31 renal = test system: UO-31 renal
TK-10 renal = test system: TK-10 renal
UACC-257 melanoma = test system: UACC-257 melanoma
PC-3 prostate = test system: PC-3 prostate
COLO 205 colon = test system: COLO 205 colon
T-47D breast = test system: T-47D breast
MCF7 breast = test system: MCF7 breast
SN12C renal = test system: SN12C renal
M14 melanoma = test system: M14 melanoma
HS 578T breast = test system: HS 578T breast
DU-145 prostate = test system: DU-145 prostate
ACHN renal = test system: ACHN renal
MDA-N = test system: MDA-N
OVCAR-8 ovarian = test system: OVCAR-8 ovarian
SNB-19 CNS = test system: SNB-19 CNS
EKVX NSCLC = test system: EKVX NSCLC
SNB-75 CNS = test system: SNB-75 CNS
UACC-62 melanoma = test system: UACC-62 melanoma
RPMI-8226 leukemia = test system: RPMI-8226 leukemia
HOP-62 NSCLC = test system: HOP-62 NSCLC
A549 NSCLC = test system: A549 NSCLC
HOP-92 NSCLC = test system: HOP-92 NSCLC
SK-OV-3 ovarian = test system: SK-OV-3 ovarian
OVCAR-4 ovarian = test system: OVCAR-4 ovarian
NCI-H522 lung = test system: NCI-H522 lung
HCC-2998 colon = test system: HCC-2998 colon
NCI-H460 lung = test system: NCI-H460 lung

For `CCOC(=O)CO/N=C\C1=CC(=O)C2CC1C2(C)C` (centres undefined), the TGI (K-562 leukemia) was > 100 µM, the TGI (IGROV1 ovarian) was > 100 µM and the TGI (786-0 renal) was > 100 µM. For the same compound, the TGI (HCT-116 colon) was > 100 µM, the TGI (SK-MEL-5 melanoma) was > 100 µM and the TGI (SK-MEL-2 melanoma) was > 100 µM. The TGI (BT-549 breast) was > 100 µM, the TGI (U251 CNS) was > 100 µM and the TGI (HT29 colon) was > 100 µM. The TGI (MDA-MB-231 breast) was > 100 µM, the TGI (RXF 393 renal) was > 100 µM and the TGI (SF-539 CNS) was > 100 µM. For the same compound, the TGI (OVCAR-3 ovarian) was > 100 µM, the TGI (MOLT-4 leukemia) was > 100 µM and the TGI (SK-MEL-28 melanoma) was > 100 µM. The TGI (CCRF-CEM leukemia) was > 100 µM, the TGI (A498 renal) was > 100 µM and the TGI (NCI-H23 lung) was > 100 µM. The TGI (OVCAR-5 ovarian) was > 100 µM, the TGI (LOX IMVI melanoma) was > 100 µM and the TGI (SF-268 CNS) was > 100 µM. The TGI (CAKI-1 renal) was > 100 µM, the TGI (HL-60(TB) leukemia) was > 100 µM and the TGI (HCT-15 colon) was > 100 µM. For the same compound, the TGI (SF-295 CNS) was > 100 µM, the TGI (KM12 colon) was > 100 µM and the TGI (MALME-3M melanoma) was > 100 µM. The TGI (SW-620 colon) was > 100 µM, the TGI (MDA-MB-435) was > 100 µM and the TGI (NCI-H226 lung) was > 100 µM. For the same compound, the TGI (NCI/ADR-RES ovarian) was > 100 µM, the TGI (UO-31 renal) was > 100 µM and the TGI (TK-10 renal) was > 100 µM. For the same compound, the TGI (UACC-257 melanoma) was > 100 µM, the TGI (PC-3 prostate) was > 100 µM and the TGI (COLO 205 colon) was > 100 µM. The TGI (T-47D breast) was > 100 µM, the TGI (MCF7 breast) was > 100 µM and the TGI (SN12C renal) was > 100 µM. For the same compound, the TGI (M14 melanoma) was > 100 µM, the TGI (HS 578T breast) was > 100 µM and the TGI (DU-145 prostate) was > 100 µM. The TGI (ACHN renal) was > 100 µM, the TGI (MDA-N) was > 100 µM and the TGI (OVCAR-8 ovarian) was > 100 µM. The TGI (SNB-19 CNS) was > 100 µM, the TGI (EKVX NSCLC) was > 100 µM and the TGI (SNB-75 CNS) was > 100 µM. The TGI (UACC-62 melanoma) was > 100 µM and the TGI (RPMI-8226 leukemia) was > 100 µM.

In the case of `C[C@@H](CO)C1=C(O)c2ccc3c(c2C(=O)C1=O)CCCC3(C)C`, the TGI (K-562 leukemia) is reported as > 100 µM, the TGI (HOP-62 NSCLC) is reported as > 100 µM and the TGI (IGROV1 ovarian) is reported as > 100 µM. The TGI (786-0 renal) was > 100 µM, the TGI (HCT-116 colon) was > 100 µM and the TGI (A549 NSCLC) was > 100 µM. For the same compound, the TGI (SK-MEL-5 melanoma) was > 100 µM, the TGI (SK-MEL-2 melanoma) was 84.7 µM and the TGI (BT-549 breast) was > 100 µM. The TGI (HOP-92 NSCLC) was > 100 µM, the TGI (U251 CNS) was > 100 µM and the TGI (HT29 colon) was > 100 µM. The TGI (MDA-MB-231 breast) was > 100 µM, the TGI (RXF 393 renal) was > 100 µM and the TGI (OVCAR-3 ovarian) was > 100 µM. For the same compound, the TGI (MOLT-4 leukemia) was > 100 µM, the TGI (SK-MEL-28 melanoma) was > 100 µM and the TGI (CCRF-CEM leukemia) was 34 µM. The TGI (A498 renal) was > 100 µM, the TGI (NCI-H23 lung) was 56.1 µM and the TGI (OVCAR-5 ovarian) was > 100 µM. For the same compound, the TGI (LOX IMVI melanoma) was > 100 µM, the TGI (SF-268 CNS) was > 100 µM and the TGI (CAKI-1 renal) was > 100 µM. For the same compound, the TGI (SK-OV-3 ovarian) was > 100 µM, the TGI (HCT-15 colon) was > 100 µM and the TGI (SF-295 CNS) was > 100 µM. For the same compound, the TGI (KM12 colon) was > 100 µM, the TGI (MALME-3M melanoma) was 50 µM and the TGI (SW-620 colon) was > 100 µM. The TGI (MDA-MB-435) was > 100 µM, the TGI (NCI-H226 lung) was > 100 µM and the TGI (NCI/ADR-RES ovarian) was > 100 µM. The TGI (UO-31 renal) was > 100 µM, the TGI (TK-10 renal) was > 100 µM and the TGI (UACC-257 melanoma) was > 100 µM. For the same compound, the TGI (PC-3 prostate) was > 100 µM, the TGI (COLO 205 colon) was > 100 µM and the TGI (T-47D breast) was > 100 µM. The TGI (SN12C renal) was > 100 µM, the TGI (OVCAR-4 ovarian) was > 100 µM and the TGI (M14 melanoma) was 40.6 µM. The TGI (HS 578T breast) was > 100 µM, the TGI (DU-145 prostate) was > 100 µM and the TGI (NCI-H522 lung) was 62.6 µM. For the same compound, the TGI (ACHN renal) was 43.2 µM, the TGI (MDA-N) was > 100 µM and the TGI (OVCAR-8 ovarian) was > 100 µM. The TGI (SNB-19 CNS) was 68.9 µM, the TGI (EKVX NSCLC) was > 100 µM and the TGI (SNB-75 CNS) was > 100 µM. For the same compound, the TGI (UACC-62 melanoma) was 77.4 µM and the TGI (RPMI-8226 leukemia) was > 100 µM.

For `C#CCCCCC#Cc1ccccc1C(=O)C=[N+]=[N-]`, the TGI (K-562 leukemia) was > 100 µM, the TGI (HOP-62 NSCLC) was > 100 µM and the TGI (IGROV1 ovarian) was > 100 µM. The TGI (786-0 renal) was > 100 µM, the TGI (HCT-116 colon) was > 100 µM and the TGI (A549 NSCLC) was > 100 µM. For the same compound, the TGI (SK-MEL-5 melanoma) was > 100 µM, the TGI (SK-MEL-2 melanoma) was > 100 µM and the TGI (BT-549 breast) was > 100 µM. The TGI (HCC-2998 colon) was > 100 µM, the TGI (HOP-92 NSCLC) was > 100 µM and the TGI (U251 CNS) was > 100 µM. The TGI (HT29 colon) was > 100 µM, the TGI (MDA-MB-231 breast) was > 100 µM and the TGI (RXF 393 renal) was > 100 µM. The TGI (NCI-H460 lung) was > 100 µM, the TGI (SF-539 CNS) was > 100 µM and the TGI (MOLT-4 leukemia) was > 100 µM. For the same compound, the TGI (SK-MEL-28 melanoma) was > 100 µM, the TGI (A498 renal) was > 100 µM and the TGI (NCI-H23 lung) was > 100 µM. For the same compound, the TGI (OVCAR-5 ovarian) was > 100 µM, the TGI (SF-268 CNS) was > 100 µM and the TGI (CAKI-1 renal) was > 100 µM. For the same compound, the TGI (SK-OV-3 ovarian) was > 100 µM, the TGI (HCT-15 colon) was > 100 µM and the TGI (SF-295 CNS) was > 100 µM. The TGI (SW-620 colon) was > 100 µM, the TGI (MDA-MB-435) was > 100 µM and the TGI (NCI-H226 lung) was > 100 µM. The TGI (UO-31 renal) was > 100 µM, the TGI (TK-10 renal) was > 100 µM and the TGI (UACC-257 melanoma) was > 100 µM. The TGI (PC-3 prostate) was > 100 µM, the TGI (COLO 205 colon) was > 100 µM and the TGI (T-47D breast) was > 100 µM. For the same compound, the TGI (MCF7 breast) was > 100 µM, the TGI (SN12C renal) was > 100 µM and the TGI (OVCAR-4 ovarian) was > 100 µM. The TGI (M14 melanoma) was > 100 µM, the TGI (HS 578T breast) was > 100 µM and the TGI (DU-145 prostate) was > 100 µM. The TGI (NCI-H522 lung) was > 100 µM, the TGI (ACHN renal) was > 100 µM and the TGI (MDA-N) was > 100 µM. For the same compound, the TGI (OVCAR-8 ovarian) was > 100 µM, the TGI (SNB-19 CNS) was > 100 µM and the TGI (EKVX NSCLC) was > 100 µM. The TGI (SNB-75 CNS) was > 100 µM, the TGI (UACC-62 melanoma) was > 100 µM and the TGI (RPMI-8226 leukemia) was > 100 µM.
